Laboratory results reported in patent US9988348B1, “Synthesis and antimicrobial use of a trithiocarbonate derivative” (KING SAUD UNIVERSITY, priority 2017, dated 2018).

Assays:
Assay in all cases: disk diffusion assay, inhibition zone
Assay type in all cases: cell-based
[1] = system: Aspergillus fumigatus AUMC 8794; settings: Aspergillus fumigatus, AUMC8794, A. fumigatus, read-out: Inhibition zone diameter of standard antimicrobial agents
Procedure: (§1) To evaluate antimicrobial activity of the compound 4, synthesized in our laboratory as novel anti-bacterial and anti-fungal agents, the inhibition zone diameter (mm) and the minimal inhibitory concentration were determined according to (Andrews 2001; Hudzicki 2009). The test carried out on several clinical microorganisms included Gram positive bacteria (Staphylococcus aureus ATCC and Streptococcus mutans ATCC 35668), Gram negative bacteria (Escherichia coli ATCC 25922, Salmonella typhimurium ATCC 14028 and Neisseria meningitides ATCC 1302); yeasts (Candid albicans ATCC 60193, Cryptococcus neoformans Wild strain and Candida parapsilosus ATCC 22019) and molds (Aspergillus fumigatus AUMC 8794, Penicillum chrysogenum AUMC 9476 and Fusarium sp.)
(§2) The clinical microorganisms were cultivated at least three times on suitable culture medium and incubating conditions before susceptibility test. The concentration of microbial inoculation suspensions in sterile sodium chloride solution (0.89%) were adjusted to 0.65 at 620 nm by spectrophotometer. […]
(§3) After that, the disks were dried at 25° C. under sterile conditions by safety biological cabinet. A Mueller-Hinton agar (MHA) (Scharlau Microbiogy, Spain) and a potato dextrose agar (PDA) (Scharlau, Spain) were used to perform antibacterial and antifungal test respectively. The media were prepared according to manufacturer's guidelines. To prepare one liter of MHA and one liter of PDA, 21 grams of MHA and 39 grams of PDA were dissolved in one liter of sterile distilled water, followed by sterilization at 121° C. for 15 minutes by an autoclave (HL-321, Taiwan). The sterilized media were poured in sterile plastic Petri dishes at 50° C. The plates were allowed to let the medium solidify at room temperature. 0.1 ml of microbial inoculation suspensions were spread on dried surface of medium and were kept at 25° C. for 5-10 minutes. The compound 4 and standard antimicrobial drugs discs (Table 1) were dispensed on the surface of inoculated media. The tested bacteria and fungi were incubated at 37±1° C. for 19-22 hours and at 25±1 for 48-72 hours respectively. After the incubation, the diameter of inhibition zone (millimeter) resulting from the biological activity of compound were recorded.

[2] = system: Candid albicans ATCC 60193; settings: Candida albicans, ATCC60193, C. albicans, read-out: Inhibition zone diameter of standard antimicrobial agents
Procedure: as §1, §2, §3

[3] = system: Candida parapsilosus ATCC 22019
Procedure: as §1, §2, §3

[4] = system: Cryptococcus neoformans Wild strain
Procedure: as §1, §2, §3

Fusarium sp. = settings: read-out: Inhibition zone diameter of standard antimicrobial agents
Procedure: as §1, §2, §3

[5] = system: Penicillum chrysogenum AUMC 9476; settings: read-out: Inhibition zone diameter of standard antimicrobial agents
Procedure: as §1, §2, §3

[6] = system: Neisseria meningitides ATCC 1302; settings: Neisseria, ATCC1302, N. meningitides, read-out: Inhibition zone diameter of standard antimicrobial agents; for zone of inhibition at 10 µg/disc: 10 μg/disk
[7] = system: Escherichia coli ATCC 25922; settings: Escherichia coli, ATCC25922, E. coli, read-out: Inhibition zone diameter of standard antimicrobial agents; for zone of inhibition at 10 µg/disc: 10 μg/disk
Procedure: as §1, §2, §3

[8] = system: Salmonella typhimurium ATCC 14028; settings: Salmonella enterica, Sa. typhimurium, read-out: Inhibition zone diameter of standard antimicrobial agents; for zone of inhibition at 10 µg/disc: 10 μg/disk
Procedure: as §1, §2, §3

[9] = system: Staphylococcus aureus ATCC; settings: Staphylococcus aureus, S. aureus, read-out: Inhibition zone diameter of standard antimicrobial agents; for zone of inhibition at 10 µg/disc: 10 μg/disk
Procedure: as §1, §2, §3

[10] = system: Streptococcus mutans ATCC 35668; settings: Streptococcus mutans, ATCC35668, S. mutans, read-out: Inhibition zone diameter of standard antimicrobial agents; for zone of inhibition at 10 µg/disc: 10 μg/disk
Procedure: as §1, §2, §3

SMILES: CC[C@H](C)C[C@H](C)CCCCCCCCC(=O)N[C@H]1C[C@@H](O)[C@@H](NCCN)NC(=O)[C@@H]2[C@@H](O)CCN2C(=O)[C@H]([C@H](O)CCN)NC(=O)[C@H]([C@H](O)[C@@H](O)c2ccc(O)cc2)NC(=O)[C@@H]2C[C@@H](O)CN2C(=O)[C@H]([C@@H](C)O)NC1=O [Caspofungin]
- zone of inhibition at 10 µg/disc ([1]; 10 μg/disk): 20 mm
- zone of inhibition at 10 µg/disc ([2]; 10 μg/disk): 20 mm
- susceptibility of the strain to the standard drug, in words ([3]; C. parasilosus): resistant
- zone of inhibition at 10 µg/disc ([3]; Candida, ATCC22019, C. parasilosus, 10 μg/disk, read-out: Inhibition zone diameter of standard antimicrobial agents): 0 mm
- susceptibility of the strain to the standard drug, in words ([4]; Cr. neoformans strain used in this study): resistance
- zone of inhibition at 10 µg/disc ([4]; Cryptococcus neoformans, C. neoformasn, 10 μg/disk, read-out: Inhibition zone diameter of standard antimicrobial agents): 0 mm
- zone of inhibition at 10 µg/disc (Fusarium sp.; Fusarium sp., 10 μg/disk): 0 mm
- zone of inhibition at 10 µg/disc ([5]; P. chrysoginum, 10 μg/disk): 0 mm

SMILES: O=C(N[C@H](CO)[C@H](O)c1ccc([N+](=O)[O-])cc1)C(Cl)Cl [Chloramphenicol]
- zone of inhibition at 30 µg/disc ([6]; 30 μg/disk): 34 mm
- zone of inhibition at 30 µg/disc ([7]; 30 μg/disk): 40 mm
- zone of inhibition at 30 µg/disc ([8]; 30 μg/disk): 30 mm
- zone of inhibition at 30 µg/disc ([9]; 30 μg/disk): 30 mm
- zone of inhibition at 30 µg/disc ([10]; 30 μg/disk): 20 mm

SMILES: C[C@@H]1C[C@@H]([C@H](O)CC2CC(=O)NC(=O)C2)C(=O)[C@@H](C)C1 [Cycloheximide]
- zone of inhibition at 30 µg/disc ([1]; 30 μg/disk): 22 mm
- zone of inhibition at 30 µg/disc ([2]; 30 μg/disk): 0 mm
- susceptibility of the strain to the standard drug, in words ([3]; C. parasilosus): resistant
- zone of inhibition at 30 µg/disc ([3]; Candida, ATCC22019, read-out: Inhibition zone diameter of standard antimicrobial agents): 0 mm
- zone of inhibition at 30 µg/disc ([4]; Cryptococcus neoformans, read-out: Inhibition zone diameter of standard antimicrobial agents): 32 mm
- zone of inhibition at 30 µg/disc (Fusarium sp.; Fusarium): 30 mm
- zone of inhibition at 30 µg/disc [5]: 23 mm

SMILES: CC(=O)O[C@H]1C[C@@]2(C)[C@@H](C[C@@H](O)[C@H]3[C@@]4(C)CC[C@@H](O)[C@@H](C)[C@@H]4CC[C@@]32C)/C1=C(\CCC=C(C)C)C(=O)O [Fusidic acid]
- zone of inhibition at 10 µg/disc [6]: 20 mm
- zone of inhibition at 10 µg/disc [7]: 0 mm
- zone of inhibition at 10 µg/disc [8]: 0 mm
- zone of inhibition at 10 µg/disc [9]: 23 mm
- zone of inhibition at 10 µg/disc [10]: 10 mm

SMILES: NC[C@H]1O[C@H](O[C@H]2[C@H](O)[C@@H](O[C@H]3O[C@H](CO)[C@@H](O)[C@H](N)[C@H]3O)[C@H](N)C[C@@H]2N)[C@H](N)C[C@@H]1O [Tobramycin]
- zone of inhibition at 10 µg/disc [6]: 21 mm
- zone of inhibition at 10 µg/disc [7]: 20 mm
- zone of inhibition at 10 µg/disc [8]: 14 mm
- zone of inhibition at 10 µg/disc [9]: 14 mm
- zone of inhibition at 10 µg/disc [10]: 35 mm
